Broadly, the IC50 is the concentration at which inhibition is half-maximal. A higher IC50 goes with weaker potency in that assay.

The structures appear in SMILES notation.

Drawing on ChEMBL document CHEMBL5465560, “Selectivity Literature for EUbOPEN Chemogenomic Library” (2024), this text covers % of control, IC50 and % binding for five compounds.

Assay [1] addresses T1, Homeodomain-interacting protein kinase 4 (Homo sapiens) (UniProt Q8NE63).
T1 sequence (whole entry): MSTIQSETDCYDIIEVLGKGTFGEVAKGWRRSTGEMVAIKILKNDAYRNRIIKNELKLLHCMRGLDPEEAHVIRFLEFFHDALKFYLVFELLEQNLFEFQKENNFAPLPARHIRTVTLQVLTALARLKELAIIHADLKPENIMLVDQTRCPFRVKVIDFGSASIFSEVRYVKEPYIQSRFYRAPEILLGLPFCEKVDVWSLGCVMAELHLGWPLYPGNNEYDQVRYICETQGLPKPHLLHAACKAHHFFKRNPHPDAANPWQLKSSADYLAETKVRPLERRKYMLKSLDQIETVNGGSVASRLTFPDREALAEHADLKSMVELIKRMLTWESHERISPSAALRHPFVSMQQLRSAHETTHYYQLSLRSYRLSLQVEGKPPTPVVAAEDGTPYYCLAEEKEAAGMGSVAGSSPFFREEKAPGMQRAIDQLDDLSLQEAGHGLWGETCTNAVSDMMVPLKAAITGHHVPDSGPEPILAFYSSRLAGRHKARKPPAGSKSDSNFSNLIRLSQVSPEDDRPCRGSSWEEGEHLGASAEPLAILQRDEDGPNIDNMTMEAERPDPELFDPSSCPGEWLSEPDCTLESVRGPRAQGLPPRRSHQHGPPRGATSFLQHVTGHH
Kind of assay: Selectivity interaction (KinomeScan (DiscoverX)) EUB0000695a HIPK4. The conditions noted are these: at 100 nM.

Assay [2] concerns the target T2, Inhibitor of nuclear factor kappa-B kinase subunit epsilon (Homo sapiens) (UniProt Q14164).
T2 sequence (whole entry): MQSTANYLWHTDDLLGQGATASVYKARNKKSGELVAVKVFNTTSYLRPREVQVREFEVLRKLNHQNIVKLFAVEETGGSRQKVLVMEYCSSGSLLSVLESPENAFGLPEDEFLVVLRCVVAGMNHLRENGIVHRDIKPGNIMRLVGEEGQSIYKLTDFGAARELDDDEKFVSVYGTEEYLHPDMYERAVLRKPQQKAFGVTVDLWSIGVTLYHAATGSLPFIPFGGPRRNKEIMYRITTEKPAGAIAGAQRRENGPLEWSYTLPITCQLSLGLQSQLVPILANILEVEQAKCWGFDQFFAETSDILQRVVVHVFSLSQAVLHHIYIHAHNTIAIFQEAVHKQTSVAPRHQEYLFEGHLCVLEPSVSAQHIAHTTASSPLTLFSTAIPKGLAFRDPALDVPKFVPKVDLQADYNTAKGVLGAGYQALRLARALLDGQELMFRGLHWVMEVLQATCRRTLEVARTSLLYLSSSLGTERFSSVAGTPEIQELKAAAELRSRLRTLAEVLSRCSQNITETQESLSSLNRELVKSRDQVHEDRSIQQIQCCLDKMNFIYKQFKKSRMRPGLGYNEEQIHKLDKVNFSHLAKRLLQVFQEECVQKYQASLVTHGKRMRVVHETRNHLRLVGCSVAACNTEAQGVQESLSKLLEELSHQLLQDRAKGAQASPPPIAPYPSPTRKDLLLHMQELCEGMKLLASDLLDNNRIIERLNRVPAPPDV
Kind of assay: Selectivity interaction (KinomeScan (DiscoverX)) EUB0000045b IKBKE.

In assay [3] the target is Ribosomal protein S6 kinase alpha-6 (Homo sapiens, UniProt Q9UK32). Kind of assay: Selectivity interaction (Kinase panel (Eurofins, enzymatic assay)) EUB0000311b RPS6KA6.
Sequence of Ribosomal protein S6 kinase alpha-6 (Q9UK32 whole entry): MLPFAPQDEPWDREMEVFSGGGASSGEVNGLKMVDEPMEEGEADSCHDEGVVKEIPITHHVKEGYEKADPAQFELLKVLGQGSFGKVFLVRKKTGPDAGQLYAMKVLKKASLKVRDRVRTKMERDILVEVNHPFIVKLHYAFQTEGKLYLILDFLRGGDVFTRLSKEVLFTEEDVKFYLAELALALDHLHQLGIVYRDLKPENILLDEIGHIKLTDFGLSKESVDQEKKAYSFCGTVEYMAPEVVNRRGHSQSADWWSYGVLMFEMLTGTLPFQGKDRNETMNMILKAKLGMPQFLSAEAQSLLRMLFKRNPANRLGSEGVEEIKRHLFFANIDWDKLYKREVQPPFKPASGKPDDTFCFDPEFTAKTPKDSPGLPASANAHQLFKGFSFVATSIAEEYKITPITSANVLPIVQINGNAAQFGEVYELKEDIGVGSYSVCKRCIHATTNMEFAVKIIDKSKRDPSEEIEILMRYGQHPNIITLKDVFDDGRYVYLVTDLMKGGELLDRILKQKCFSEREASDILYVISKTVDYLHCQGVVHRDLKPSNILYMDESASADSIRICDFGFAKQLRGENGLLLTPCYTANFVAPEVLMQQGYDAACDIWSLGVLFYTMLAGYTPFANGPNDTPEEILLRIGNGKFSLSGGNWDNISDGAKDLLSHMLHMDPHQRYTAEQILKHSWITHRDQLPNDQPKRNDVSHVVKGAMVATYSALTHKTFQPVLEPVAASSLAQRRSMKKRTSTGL
Assay [4] addresses T3, Serine/threonine-protein kinase Nek1 (Homo sapiens) (UniProt Q96PY6).
T3 sequence (whole entry): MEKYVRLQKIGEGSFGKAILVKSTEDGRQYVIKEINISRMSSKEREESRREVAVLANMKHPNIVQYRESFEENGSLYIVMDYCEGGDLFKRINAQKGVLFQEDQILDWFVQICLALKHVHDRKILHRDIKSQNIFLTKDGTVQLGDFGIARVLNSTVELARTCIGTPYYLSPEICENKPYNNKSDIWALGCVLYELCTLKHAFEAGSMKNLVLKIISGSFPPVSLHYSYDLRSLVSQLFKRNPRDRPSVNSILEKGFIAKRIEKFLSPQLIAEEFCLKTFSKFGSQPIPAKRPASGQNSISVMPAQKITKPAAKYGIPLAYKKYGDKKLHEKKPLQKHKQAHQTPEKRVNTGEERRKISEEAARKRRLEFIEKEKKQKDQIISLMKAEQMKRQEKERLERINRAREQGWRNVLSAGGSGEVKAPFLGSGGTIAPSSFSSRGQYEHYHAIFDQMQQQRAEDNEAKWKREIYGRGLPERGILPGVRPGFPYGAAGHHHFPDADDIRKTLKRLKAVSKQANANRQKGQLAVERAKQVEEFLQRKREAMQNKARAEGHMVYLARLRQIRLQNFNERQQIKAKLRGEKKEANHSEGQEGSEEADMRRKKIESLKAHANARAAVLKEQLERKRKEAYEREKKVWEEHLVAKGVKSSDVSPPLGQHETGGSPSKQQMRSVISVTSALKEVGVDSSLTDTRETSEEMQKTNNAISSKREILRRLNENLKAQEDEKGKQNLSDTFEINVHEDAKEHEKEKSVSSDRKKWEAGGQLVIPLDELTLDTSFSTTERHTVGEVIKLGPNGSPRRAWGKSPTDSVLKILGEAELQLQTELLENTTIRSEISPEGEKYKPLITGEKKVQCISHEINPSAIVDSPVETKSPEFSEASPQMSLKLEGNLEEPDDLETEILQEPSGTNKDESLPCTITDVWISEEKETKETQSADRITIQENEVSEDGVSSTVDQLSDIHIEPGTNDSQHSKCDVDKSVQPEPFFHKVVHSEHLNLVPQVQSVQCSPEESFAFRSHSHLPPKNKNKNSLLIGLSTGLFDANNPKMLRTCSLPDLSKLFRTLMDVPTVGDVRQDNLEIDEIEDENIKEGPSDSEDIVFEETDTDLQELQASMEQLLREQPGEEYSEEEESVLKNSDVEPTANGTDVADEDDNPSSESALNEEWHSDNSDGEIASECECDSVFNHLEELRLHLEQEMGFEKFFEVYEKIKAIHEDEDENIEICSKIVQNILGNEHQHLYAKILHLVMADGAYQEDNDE
Kind of assay: Selectivity interaction (KinomeScan (DiscoverX)) EUB0000655a NEK1. The conditions noted are these: at 10 µM.

Assay [5] has as its target Serine/threonine-protein kinase 24 (Homo sapiens) (UniProt Q9Y6E0). The assay can be described thus: Selectivity interaction (KinomeScan (DiscoverX)) EUB0000229b STK24. The note with it: at 10 µM.

Sequence of Serine/threonine-protein kinase 24 (Homo sapiens) (Q9Y6E0 whole entry, looked up): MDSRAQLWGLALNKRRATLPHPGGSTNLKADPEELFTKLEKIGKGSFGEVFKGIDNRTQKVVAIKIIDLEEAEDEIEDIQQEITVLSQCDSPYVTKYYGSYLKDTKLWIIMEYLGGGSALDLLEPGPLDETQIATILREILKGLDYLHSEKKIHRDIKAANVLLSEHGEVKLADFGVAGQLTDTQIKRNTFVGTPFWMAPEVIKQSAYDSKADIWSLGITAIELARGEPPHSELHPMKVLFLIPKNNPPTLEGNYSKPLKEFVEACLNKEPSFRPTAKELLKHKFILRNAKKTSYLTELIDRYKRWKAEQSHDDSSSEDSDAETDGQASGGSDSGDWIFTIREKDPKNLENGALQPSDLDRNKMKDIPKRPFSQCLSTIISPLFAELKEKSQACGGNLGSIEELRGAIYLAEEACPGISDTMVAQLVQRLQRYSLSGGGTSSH

In turn, `Cc1cc(F)c(C(=O)Nc2cccc(-c3nncn3C(C)C)n2)cc1-n1cnc(C2CC2)c1` gave a % of control in assay [1] of 100%.

As to `C=CC(=O)Nc1cc(-n2c(=O)ccc3cnc4ccc(-c5ccc(NS(C)(=O)=O)cc5)cc4c32)ccc1C`, the % of control in assay [2] (at 1 µM) and in assay [2] (at 10 µM) was 100% throughout. Take `CCc1ccccc1C(=O)Nc1n[nH]c2c(C)c(F)c(C3C(C#N)=C(C)N(C)C(C)=C3C#N)cc12` [BAY-3827]: the IC50 in assay [3] was 36 nM. For `CN(C)CCOc1ccc(-c2nc(-c3ccncc3)c(-c3ccc4c(c3)CC/C4=N\O)[nH]2)cc1`, the % of control in assay [4] turned out to be 87%. With `COc1cc(N(C)c2ccnc3ccc(C(F)(F)F)cc23)cc(OC)c1OC`, the % binding in assay [5] is 95%.
